Several values for one entry are separate records, joined by “and”; a condition that tells them apart may be missing. Equal values may be shown once. Marks after values point to notes of the source that are not given here.
What was measured:
M. tuberculosis = assay: Chronic Balb/c mouse model of M. tuberculosis infection; type: in vivo
[1] = Body weight at gross necropsy after 4 weeks of treatment (chronic model); type: in vivo, Balb/c mouse; conditions: Group 8, INH, individual mice
Description: When evaluated in the “Chronic Balb/c mouse model” of M. tuberculosis infection by the method of Lenaerts, A. J., et. al. 2005. Preclinical testing of the nitroimidazopyran PA-824 for activity against M. tuberculosis in a series of in vitro and in vivo models. AAC. 49(6):2294-301. ND-012101 at 200 mg/kg and ND-012101(100 mg/kg)+ABT (100 mg/kg) both achieved 100% mouse survival after 4 weeks of oral dosing.

Which “Spleen, gross necropsy observation” value (M. tuberculosis; Group 8, INH, after 4 weeks of treatment, individual mice) does the source give for `NNC(=O)c1ccncc1` [INH, Isoniazid, reference compound] here?
The value was “enlarged”.

What about the “Lung Log10 CFU ± SEM” value (M. tuberculosis; INH (25), 4 Week Treatment) of the same compound?
Its value is 4.06 ± 0.11 Log10 CFU.

And the “Spleen Log10 CFU ± SEM” value (M. tuberculosis; INH (25), 4 Week Treatment)?
Its value is 2.13 ± 0.12^a Log10 CFU.

And the “Log reduction vs CTL (Lg)” value (M. tuberculosis; lung, INH (25), 4 Week Treatment)?
The value was 1.73.

And the “Log reduction vs CTL (Sp)” value (M. tuberculosis; spleen, INH (25), 4 Week Treatment)?
Its value is 2.87.

And the Weight [1]?
Its Weight is 19.6 and 20.2 and 20.1 and 19.9 and 19.2 and 20.8.

From US20210009583A1, “DEUTERATED IMIDAZOPYRIDINES” (UNIVERSITY OF NOTRE DAME DU LAC, priority 2018, published 2021)
